Test results published in the CheMixHub ionic liquid set.
± gives the uncertainty stated by the source.

Test: xn = mol fraction of the nth substance listed
Conditions: 100 kPa

CCCCCCCCCCCCCC[P+](CCCCCC)(CCCCCC)CCCCCC.N#C[N-]C#N + COCCOCCOCCOCCOC
viscosity [mPa·s]
Conditions | 278.15 K | 283.15 K | 288.15 K | 293.15 K | 298.15 K | 303.15 K | 308.15 K | 313.15 K | 318.15 K | 323.15 K
x2 = 0 | 1750 ± 140 | 1210 ± 85 | 842 ± 54 | 603 ± 35 | 442 ± 23 | 331 ± 16 | 253 ± 11 | 196 ± 8 | 155 ± 5 | 124 ± 4
x2 = 0.099 | 1130 ± 78 | 794 ± 49 | 566 ± 32 | 413 ± 21 | 308 ± 14 | 234 ± 9 | 182 ± 7 | 143 ± 5 | 115 ± 3 | 93 ± 3
x2 = 0.203 | 708 ± 42 | 508 ± 27 | 370 ± 18 | 275 ± 12 | 209 ± 8 | 162 ± 5 | 128 ± 4 | 103 ± 3 | 83 ± 2 | 69 ± 2
x2 = 0.299 | 479 ± 25 | 348 ± 16 | 258 ± 10 | 195 ± 7 | 151 ± 5 | 119 ± 3 | 96 ± 2 | 78 ± 2 | 64 ± 1 | 54 ± 1
x2 = 0.501 | 160 ± 6 | 122 ± 3 | 95 ± 2 | 75 ± 2 | 61 ± 1 | – | – | – | – | –
x2 = 0.652 | 73 ± 1 | 57 ± 1 | – | – | – | – | – | – | – | –

CCCCCCCCCCCCCC[P+](CCCCCC)(CCCCCC)CCCCCC.N#Cc1nc[n-]c1C#N + COCCOCCOCCOCCOC
viscosity [mPa·s]
Conditions | 278.15 K | 283.15 K | 288.15 K | 293.15 K | 298.15 K | 303.15 K | 308.15 K | 313.15 K | 318.15 K | 323.15 K
x2 = 0.201 | 1051 ± 66 | 723 ± 41 | 507 ± 25 | 365 ± 16 | 269 ± 10 | 203 ± 6 | 156 ± 4 | 123 ± 3 | 98 ± 5 | 79 ± 5
x2 = 0.401 | 389 ± 17 | 283 ± 11 | 209 ± 7 | 158 ± 4 | 122 ± 3 | 97 ± 2 | 77 ± 1 | 63 ± 1 | – | –

CC[n+]1ccn(C)c1.O=S(=O)([O-])C(F)(F)F + CS(C)=O
Conditions | viscosity [mPa·s]
298.15 K, x1 = 0.1068 | 3.7 ± 1.1
298.15 K, x1 = 0.3077 | 7.9 ± 2.4
318.15 K, x1 = 0.4023 | 7 ± 2.1
323.15 K, x1 = 0.4933 | 8.2 ± 2.5
